Data: US12150998B2, “Bicyclic peptide ligands specific for P-selectin” (BicycleTx Limited, priority 2021, dated 2024)
Read-outs that look alike come from different tables or passages of the source. Starred links: 1 amine or outer side, 2 acyl side, 3 side chain; linkers in the order of their positions; H or OH if unused. Positions of bridges follow the written chain, without caps; N, C: chain ends. Non-standard residues stand in square brackets, D forms with d. Chains are numbered I, II in the order given. No end group written: not given here. X3 = O=C(CCOCCN(CCOCCC(=O)NCCOCCOCCOCCOCCOCCOCCOCCOCCOCCOCCOCCOCCOCCOCCOCCOCCOCCOCCOCCOCCOCCOCCOCCn1cc(CCC(=O)[*:2])nn1)CCOCCC(=O)NCCOCCOCCOCCOCCOCCOCCOCCOCCOCCOCCOCCOCCOCCOCCOCCOCCOCCOCCOCCOCCOCCOCCOCCn1cc(CCC(=O)[*:3])nn1)NCCOCCOCCOCCOCCOCCOCCOCCOCCOCCOCCOCCOCCOCCOCCOCCOCCOCCOCCOCCOCCOCCOCCOCCn1cc(CCC(=O)[*:1])nn1; X1 = O=C(C[*:1])N1CCN(C(=O)C[*:2])CCN(C(=O)C[*:3])CC1; 1Nal = N[C@@H](Cc1cccc2ccccc12)C(=O)O

Assays:
[1] = biological target: T1, P-Selectin:PSGL1 interaction (Homo sapiens, UniProt P16109); experiment: Receptor ligand inhibition assay (P-Selectin binding to HL-60 cells); assay type: cell-based; details: for Inhibition at top concentration: 100−% response at top concentration
T1 construct: host or cells: HL-60 cells (ATCC, CCL-240) supply the PSGL-1 partner endogenously
T1 sequence (P16109 42-771 limits assumed): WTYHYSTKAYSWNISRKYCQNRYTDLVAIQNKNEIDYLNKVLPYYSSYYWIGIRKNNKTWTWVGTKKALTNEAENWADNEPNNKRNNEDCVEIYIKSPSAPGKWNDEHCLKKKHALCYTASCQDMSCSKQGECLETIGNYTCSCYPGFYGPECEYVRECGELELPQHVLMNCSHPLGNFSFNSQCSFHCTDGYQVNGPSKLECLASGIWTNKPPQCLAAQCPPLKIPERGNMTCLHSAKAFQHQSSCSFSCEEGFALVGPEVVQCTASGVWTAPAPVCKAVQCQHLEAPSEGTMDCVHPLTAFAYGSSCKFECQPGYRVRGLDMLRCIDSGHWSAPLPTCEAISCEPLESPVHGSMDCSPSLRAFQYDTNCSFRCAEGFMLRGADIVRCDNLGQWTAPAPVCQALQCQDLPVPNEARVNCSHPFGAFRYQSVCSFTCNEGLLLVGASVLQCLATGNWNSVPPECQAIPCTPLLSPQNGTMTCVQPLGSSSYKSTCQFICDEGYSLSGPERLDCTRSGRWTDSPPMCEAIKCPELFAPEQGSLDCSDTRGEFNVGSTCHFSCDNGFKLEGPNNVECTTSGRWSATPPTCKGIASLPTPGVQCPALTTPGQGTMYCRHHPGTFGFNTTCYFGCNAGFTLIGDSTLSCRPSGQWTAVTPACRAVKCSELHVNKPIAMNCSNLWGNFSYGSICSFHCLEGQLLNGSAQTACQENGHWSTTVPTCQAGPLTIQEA
Method in brief: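 Serial dilutions in HEPES buffer, pH 7.4, with 1% BSA and 0.5% DMSO were preincubated 15 min at room temperature with P-selectin (5 nM final). HL-60 cells with far-red WGA and AF488-streptavidin were then added for 2 h, binding read by microplate cytometry; IC50 from four-parameter logistic fit, % inhibition as 100−% response at top concentration.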

[2] = biological target: T2, human P-Selectin protein (Homo sapiens, UniProt P16109); experiment: SPR binding assay (Biacore); details: Affinity KD determined by SPR, recombinant biotinylated human P-Selectin, 25° C.
T2 sequence (P16109 42-830): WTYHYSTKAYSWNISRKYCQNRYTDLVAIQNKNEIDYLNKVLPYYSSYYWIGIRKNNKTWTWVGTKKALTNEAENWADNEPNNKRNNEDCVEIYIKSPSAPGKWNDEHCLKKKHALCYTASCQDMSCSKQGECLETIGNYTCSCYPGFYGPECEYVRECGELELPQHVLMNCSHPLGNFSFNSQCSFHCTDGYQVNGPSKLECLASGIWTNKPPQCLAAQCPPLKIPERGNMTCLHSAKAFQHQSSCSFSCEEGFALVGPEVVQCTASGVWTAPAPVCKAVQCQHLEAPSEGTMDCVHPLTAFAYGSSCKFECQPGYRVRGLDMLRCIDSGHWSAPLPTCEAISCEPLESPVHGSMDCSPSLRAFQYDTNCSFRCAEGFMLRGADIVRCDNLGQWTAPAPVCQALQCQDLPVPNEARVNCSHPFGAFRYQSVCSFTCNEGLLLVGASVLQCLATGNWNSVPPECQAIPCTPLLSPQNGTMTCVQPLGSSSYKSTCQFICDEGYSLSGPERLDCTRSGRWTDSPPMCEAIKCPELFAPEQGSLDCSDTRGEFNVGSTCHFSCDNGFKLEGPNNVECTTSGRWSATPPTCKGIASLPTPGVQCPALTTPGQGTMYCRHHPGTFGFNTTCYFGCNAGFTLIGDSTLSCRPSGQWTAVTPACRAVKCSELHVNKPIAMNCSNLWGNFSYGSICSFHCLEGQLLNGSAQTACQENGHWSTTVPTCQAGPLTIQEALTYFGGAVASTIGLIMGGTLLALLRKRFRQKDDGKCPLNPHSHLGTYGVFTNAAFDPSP
Method in brief: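 Biotinylated recombinant human P-Selectin was captured on a streptavidin chip (1000-1500 RU), and monomeric peptides were injected in PBS/0.05% Tween 20 with 0.5% DMSO at 25 °C (top 200 nM–50 μM, 2- or 3-fold series). Double-referenced data were fitted to a kinetic model with mass transport to give ka, kd and KD.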

[3] = 5 nM P-Selectin, HL-60 cells, geomean of n=3, read-out: IC50

CC(C)C[C@@H]1NC(=O)[C@H](CO)NC(=O)[C@@H]2CCCN2C(=O)[C@H](C(C)C)NC(=O)[C@H](CC(=O)O)NC(=O)[C@@H]2CSCC(=O)N3CCN(CCN(CC3)C(=O)CSC[C@@H](C(=O)N[C@@H](C)C(=O)N[C@@H](CCCCNC(=O)CCc3cn(CCOCCOCCOCCOCCOCCOCCOCCOCCOCCOCCOCCOCCOCCOCCOCCOCCOCCOCCOCCOCCOCCOCCOCCNC(=O)CCOCC(COCCC(=O)NCCOCCOCCOCCOCCOCCOCCOCCOCCOCCOCCOCCOCCOCCOCCOCCOCCOCCOCCOCCOCCOCCOCCOCCn4cc(CCC(=O)NCCCC[C@H](NC(=O)[C@H](C)NC(=O)[C@@H]5CSCC(=O)N6CCN7CCN(CC6)C(=O)CSC[C@H](NC(=O)[C@H](Cc6cccc8ccccc68)NC(=O)[C@H](CC(=O)O)NC(=O)[C@H](C)NC(=O)[C@H](CC(=O)O)NC(=O)[C@@H](NC(=O)[C@H](C)N)CSCC7=O)C(=O)N[C@@H](CC(=O)O)C(=O)N[C@@H](C(C)C)C(=O)N6CCC[C@H]6C(=O)N[C@@H](CO)C(=O)N[C@@H](CC(C)C)C(=O)N6CCC[C@H]6C(=O)N5)C(N)=O)nn4)(COCCC(=O)NCCOCCOCCOCCOCCOCCOCCOCCOCCOCCOCCOCCOCCOCCOCCOCCOCCOCCOCCOCCOCCOCCOCCOCCn4cc(CCC(=O)NCCCC[C@H](NC(=O)[C@H](C)NC(=O)[C@@H]5CSCC(=O)N6CCN7CCN(CC6)C(=O)CSC[C@H](NC(=O)[C@H](Cc6cccc8ccccc68)NC(=O)[C@H](CC(=O)O)NC(=O)[C@H](C)NC(=O)[C@H](CC(=O)O)NC(=O)[C@@H](NC(=O)[C@H](C)N)CSCC7=O)C(=O)N[C@@H](CC(=O)O)C(=O)N[C@@H](C(C)C)C(=O)N6CCC[C@H]6C(=O)N[C@@H](CO)C(=O)N[C@@H](CC(C)C)C(=O)N6CCC[C@H]6C(=O)N5)C(N)=O)nn4)COCCC(=O)NCCOCCOCCOCCOCCOCCOCCOCCOCCOCCOCCOCCOCCOCCOCCOCCOCCOCCOCCOCCOCCOCCOCCOCCn4cc(CCC(=O)NCCCC[C@H](NC(=O)[C@H](C)NC(=O)[C@@H]5CSCC(=O)N6CCN7CCN(CC6)C(=O)CSC[C@H](NC(=O)[C@H](Cc6cccc8ccccc68)NC(=O)[C@H](CC(=O)O)NC(=O)[C@H](C)NC(=O)[C@H](CC(=O)O)NC(=O)[C@@H](NC(=O)[C@H](C)N)CSCC7=O)C(=O)N[C@@H](CC(=O)O)C(=O)N[C@@H](C(C)C)C(=O)N6CCC[C@H]6C(=O)N[C@@H](CO)C(=O)N[C@@H](CC(C)C)C(=O)N6CCC[C@H]6C(=O)N5)C(N)=O)nn4)nn3)C(N)=O)NC(=O)[C@@H]3CCCN3C1=O)C(=O)CSC[C@H](NC(=O)[C@H](C)N)C(=O)N[C@@H](CC(=O)O)C(=O)N[C@@H](C)C(=O)N[C@@H](CC(=O)O)C(=O)N[C@@H](Cc1cccc3ccccc13)C(=O)N2 [BCY12262] was tested, and the IC50 [1] was 3.29 nM, the “Inhibition at top concentration” value ([1]; geomean of n=3) was 68% and the Kd [2] was 0.017 nM.

For “I: ACDADWCDVPSLPCAK-NH2 / II: ACDADWCDVPSLPCAK-NH2 / III: ACDADWCDVPSLPCAK-NH2 (linker I:2-I:7-I:14, II:2-II:7-II:14, III:2-III:7-III:14 via X1; linker I:16-II:16-III:16 via X3) [BCY12259]”, the IC50 [1, 3] was 14.4 nM, the “Inhibition at top concentration” value ([1]; geomean of n=3) was 61% and the Kd [2] was 0.233 nM.

With “I: ACDAD[1Nal]CDVPSLPCAK-NH2 / II: ACDAD[1Nal]CDVPSLPCAK-NH2 / III: ACDAD[1Nal]CDVPSLPCAK-NH2 (linker I:2-I:7-I:14, II:2-II:7-II:14, III:2-III:7-III:14 via X1; linker I:16-II:16-III:16 via X3) [BCY12260]” the IC50 [1, 3] was 9.62 nM, the “Inhibition at top concentration” value ([1]; geomean of n=3) was 64% and the Kd [2] was 0.109 nM.
